In ChEMBL document CHEMBL4482323, “Novel heterocyclic compound, method for preparing same, and pharmaceutical composition comprising same as active ingredient for preventing or treating cancer” (2017):

Assays:
SUMO-activating enzyme = SUMO-activating enzyme (Homo sapiens, UniProt Q9UBT2); experiment: Inhibition of SAE (unknown origin) using recombinant His-tagged human SUMO1 measured after 2 hrs by HTRF assay; type: protein-complex assay
NEDD8 activating enzyme = biological target: T1, NEDD8 activating enzyme (Homo sapiens, UniProt Q8TBC4); experiment: Inhibition of NAE (unknown origin) using GST-tagged Ubc12 and Flag-tagged Nedd8 measured after 2 hrs by TR-FRET assay; type: protein-complex assay
T1 sequence (Q8TBC4 whole entry): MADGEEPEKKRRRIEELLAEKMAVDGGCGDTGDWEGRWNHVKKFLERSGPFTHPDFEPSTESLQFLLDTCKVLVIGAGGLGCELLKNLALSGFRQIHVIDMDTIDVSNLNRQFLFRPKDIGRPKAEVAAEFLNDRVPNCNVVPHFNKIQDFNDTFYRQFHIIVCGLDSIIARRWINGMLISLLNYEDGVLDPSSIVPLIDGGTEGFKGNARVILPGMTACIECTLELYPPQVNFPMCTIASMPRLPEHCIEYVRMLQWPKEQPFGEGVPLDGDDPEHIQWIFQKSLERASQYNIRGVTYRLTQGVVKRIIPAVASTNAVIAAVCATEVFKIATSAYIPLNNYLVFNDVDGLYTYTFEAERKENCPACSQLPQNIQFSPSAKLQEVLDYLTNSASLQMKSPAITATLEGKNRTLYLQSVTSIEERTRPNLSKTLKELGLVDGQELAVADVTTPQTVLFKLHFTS
T1 sequence (Q13564 whole entry): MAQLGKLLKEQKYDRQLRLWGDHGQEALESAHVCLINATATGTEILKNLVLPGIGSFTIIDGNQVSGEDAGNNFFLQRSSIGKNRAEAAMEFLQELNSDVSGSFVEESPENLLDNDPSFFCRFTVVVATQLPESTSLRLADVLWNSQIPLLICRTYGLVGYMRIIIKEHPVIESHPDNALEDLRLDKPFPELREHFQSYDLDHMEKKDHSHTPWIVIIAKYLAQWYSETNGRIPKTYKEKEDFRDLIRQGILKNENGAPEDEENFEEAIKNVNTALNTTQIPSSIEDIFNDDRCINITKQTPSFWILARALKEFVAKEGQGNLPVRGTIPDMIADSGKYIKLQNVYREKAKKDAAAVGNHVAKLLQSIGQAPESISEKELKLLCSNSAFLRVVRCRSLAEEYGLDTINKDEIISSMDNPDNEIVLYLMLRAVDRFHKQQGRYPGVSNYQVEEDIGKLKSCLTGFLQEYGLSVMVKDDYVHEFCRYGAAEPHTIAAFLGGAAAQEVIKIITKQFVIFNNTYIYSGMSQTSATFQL

HCT-116 = experiment: Antiproliferative activity against human HCT116 cells after 48 hrs by CCK8 assay; type: functional; conditions: HCT-116, 48 h, read-out: LD50 (the source's name)
THP-1 = experiment: Antiproliferative activity against human THP1 cells after 48 hrs by CCK8 assay; type: functional; conditions: THP-1, 48 h, read-out: LD50 (the source's name)

Chain of SUMO-activating enzyme (Q9UBE0 whole entry): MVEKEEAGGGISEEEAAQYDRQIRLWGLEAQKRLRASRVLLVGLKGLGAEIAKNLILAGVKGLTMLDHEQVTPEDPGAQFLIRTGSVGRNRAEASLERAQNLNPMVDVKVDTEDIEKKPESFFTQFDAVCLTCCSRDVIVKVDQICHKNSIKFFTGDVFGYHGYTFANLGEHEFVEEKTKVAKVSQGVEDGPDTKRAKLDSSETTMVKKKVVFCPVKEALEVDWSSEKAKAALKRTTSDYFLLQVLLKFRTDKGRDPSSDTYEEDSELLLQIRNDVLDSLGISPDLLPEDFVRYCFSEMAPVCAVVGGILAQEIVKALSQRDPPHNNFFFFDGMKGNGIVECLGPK
Chain of SUMO-activating enzyme (Q9UBT2 whole entry): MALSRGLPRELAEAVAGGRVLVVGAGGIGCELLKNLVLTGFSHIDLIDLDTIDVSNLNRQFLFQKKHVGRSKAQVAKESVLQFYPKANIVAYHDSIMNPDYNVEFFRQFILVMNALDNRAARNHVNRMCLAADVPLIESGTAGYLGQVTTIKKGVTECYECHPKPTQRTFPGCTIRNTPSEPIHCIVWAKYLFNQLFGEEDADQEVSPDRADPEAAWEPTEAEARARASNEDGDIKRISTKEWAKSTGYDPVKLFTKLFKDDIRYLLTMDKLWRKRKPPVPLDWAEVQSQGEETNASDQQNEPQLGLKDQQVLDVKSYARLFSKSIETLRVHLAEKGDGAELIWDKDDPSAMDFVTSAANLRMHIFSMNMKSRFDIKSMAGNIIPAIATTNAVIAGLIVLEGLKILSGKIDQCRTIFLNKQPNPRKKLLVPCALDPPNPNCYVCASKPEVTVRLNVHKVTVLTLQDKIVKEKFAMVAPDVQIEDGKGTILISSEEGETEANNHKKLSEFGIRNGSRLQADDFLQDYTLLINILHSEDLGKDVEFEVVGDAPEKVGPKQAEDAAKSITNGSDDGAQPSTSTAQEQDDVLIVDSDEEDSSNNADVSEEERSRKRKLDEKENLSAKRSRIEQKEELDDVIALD

Row | SMILES | IC50 (SUMO-activating enzyme) [nM] | IC50 (NEDD8 activating enzyme) [nM] | CC50 (HCT-116) [nM] | CC50 (THP-1) [nM]
1 | NS(=O)(=O)OC[C@H]1C[C@@H](Nc2ncncc2C(=O)c2cn(Cc3cccc(C(F)(F)F)c3)c3ccccc23)[C@H](O)[C@@H]1O | 3180 | 12 | 1240 | 1280
2 | Cc1cccc(Cn2cc(C(=O)c3cncnc3N[C@@H]3C[C@H](COS(N)(=O)=O)[C@@H](O)[C@H]3O)c3cc(F)ccc32)c1 | 680 |  |  | 
3 | COc1cccc(Cn2cc(C(=O)c3cncnc3N[C@@H]3C[C@H](COS(N)(=O)=O)[C@@H](O)[C@H]3O)c3ccccc32)c1 | 40 | 22 | 431 | < 30
4 | N#Cc1cccc(Cn2cc(C(=O)c3cncnc3N[C@@H]3C[C@H](COS(N)(=O)=O)[C@@H](O)[C@H]3O)c3ccccc32)c1 |  |  | 15100 | 13200
5 | NS(=O)(=O)OC[C@H]1C[C@@H](Nc2ncncc2C(=O)c2cn(Cc3ccc(C(F)(F)F)o3)c3ccccc23)[C@H](O)[C@@H]1O | 1290 |  | 2010 | 813
6 | NS(=O)(=O)OC[C@H]1C[C@@H](Nc2ncncc2C(=O)c2cn(Cc3cccc(F)c3)c3ccccc23)[C@H](O)[C@@H]1O | 1650 | 91 | 456 | < 30
7 | Cc1c(Cn2cc(C(=O)c3cncnc3N[C@@H]3C[C@H](COS(N)(=O)=O)[C@@H](O)[C@H]3O)c3cc(F)ccc32)cccc1C(F)(F)F | 990 | 112 |  | 
8 | NS(=O)(=O)OC[C@H]1C[C@@H](Nc2ncncc2C(=O)c2cn(Cc3ccccc3F)c3ccccc23)[C@H](O)[C@@H]1O | 2880 |  | 3120 | 1000
9 | Cc1cc(Cn2cc(C(=O)c3cncnc3N[C@@H]3C[C@H](COS(N)(=O)=O)[C@@H](O)[C@H]3O)c3cc(F)ccc32)ccc1F | 1720 | 15 |  | 
10 | NS(=O)(=O)OC[C@H]1C[C@@H](Nc2ncncc2C(=O)c2cn(Cc3cc(Cl)ccc3Cl)c3ccccc23)[C@H](O)[C@@H]1O |  | 37 | 643 | 662
11 | NS(=O)(=O)OC[C@H]1C[C@@H](Nc2ncncc2C(=O)c2nn(Cc3cccc(Br)c3)c3ccccc23)[C@H](O)[C@@H]1O | 1700 |  |  | 
12 | NS(=O)(=O)OC[C@H]1C[C@@H](Nc2ncncc2C(=O)c2cn(Cc3cccc(Cl)c3)c3ccccc23)[C@H](O)[C@@H]1O | 460 | 19 | 790 | 600
13 | NS(=O)(=O)OC[C@H]1C[C@@H](Nc2ncncc2C(=O)c2cn(Cc3cccc(Br)c3)c3ncccc23)[C@H](O)[C@@H]1O | 661 |  | 2010 | 813
14 | NS(=O)(=O)OC[C@H]1C[C@@H](Nc2ncncc2C(=O)c2cn(Cc3ccccc3)c3ccccc23)C[C@@H]1O | 560 | 0.6 |  | 
15 | NS(=O)(=O)OC[C@H]1C[C@@H](Nc2ncncc2C(=O)c2cn(Cc3ccc(F)c(F)c3)c3ccccc23)[C@H](O)[C@@H]1O | 3480 | 20 | 2280 | 1810
16 | NS(=O)(=O)OC[C@H]1C[C@@H](Nc2ncncc2C(=O)c2cn(CC3CCCCC3)c3ccccc23)[C@H](O)[C@@H]1O | 1650 |  |  | 
17 | NS(=O)(=O)OC[C@H]1C[C@@H](Nc2ncncc2C(=O)c2cn(Cc3ccc4ccccc4c3)c3ccc(F)cc23)[C@H](O)[C@@H]1O |  | 141 |  | 
18 | NS(=O)(=O)OC[C@H]1C[C@@H](Nc2ncncc2C(=O)c2cn(Cc3ccc(S(F)(F)(F)(F)F)cc3)c3ccc(F)cc23)[C@H](O)[C@@H]1O |  | 10 |  | 
19 | NS(=O)(=O)OC[C@H]1C[C@@H](Nc2ncncc2C(=O)c2cn(Cc3cccc(Br)c3)c3ccccc23)[C@H](O)[C@@H]1O | 100 |  | 934 | 223
20 | NS(=O)(=O)OC[C@H]1C[C@@H](Nc2ncncc2C(=O)c2cn(Cc3ccccc3)c3ccccc23)[C@H](O)[C@@H]1O | 120 | 5 | 228 | < 30
21 | NS(=O)(=O)OC[C@H]1C[C@@H](Nc2ncncc2C(=O)c2cn(Cc3cc(C(F)(F)F)cc(C(F)(F)F)c3)c3ccccc23)[C@H](O)[C@@H]1O |  |  | 4120 | 2780
22 | NS(=O)(=O)OC[C@H]1C[C@@H](Nc2ncncc2C(=O)c2cn(Cc3cccc(N4CCOCC4)c3)c3ccc(F)cc23)[C@H](O)[C@@H]1O | > 10000 | 13 |  | 
23 | NS(=O)(=O)OC[C@H]1C[C@@H](Nc2ncncc2C(=O)c2cn(Cc3cccc(Br)c3)c3ccc(F)cc23)[C@H](O)[C@@H]1O | 530 | 0.9 | 1010 | 896
24 | NS(=O)(=O)OC[C@H]1C[C@@H](Nc2ncncc2C(=O)c2cn(Cc3ccc(F)cc3F)c3ccccc23)[C@H](O)[C@@H]1O | 30 | 8 | 1480 | 1560
25 | Cc1cccc(Cn2cc(C(=O)c3cncnc3N[C@@H]3C[C@H](COS(N)(=O)=O)[C@@H](O)[C@H]3O)c3ccccc32)n1 | 2210 |  | 413 | 55.3
26 | NS(=O)(=O)OC[C@H]1C[C@@H](Nc2ncncc2C(=O)c2cn(Cc3ccccc3)c3ccccc23)[C@@H](F)[C@@H]1O | 1840 |  |  | 
27 | NS(=O)(=O)OC[C@H]1C[C@@H](Nc2ncncc2C(=O)c2cn(Cc3ccc(F)c(Cl)c3)c3ccccc23)[C@H](O)[C@@H]1O | 1600 |  | 1800 | 1430
28 | NS(=O)(=O)OC[C@H]1C[C@@H](Nc2ncncc2C(=O)c2cn(Cc3cccc(I)c3)c3ccccc23)[C@H](O)[C@@H]1O | 470 |  | 587 | 163
29 | C/C=C/Cn1cc(C(=O)c2cncnc2NC2C[C@H](COS(N)(=O)=O)[C@@H](O)[C@H]2O)c2ccccc21 (single isomer, unassigned) | 1860 |  |  | 
